Assay results taken from US11787802B2, “Dihydrobenzimidazolones for medical treatment” (C4 Therapeutics, Inc., priority 2017, dated 2023).
pKd: −log10 of the molar value.

target: hCereblon(M1-L442)_hDDB1(M1-H1140) (Homo sapiens (Human), UniProt Q96SW2); test: Fluorescence direct binding protocol (tryptophan fluorescence titration); conditions: fluorescence titration at 20° C., excited at 280 nm, recorded at 340 nm; protein 5.0 E−8 M; assay buffer 50 mM Hepes 7.4 200 mM NaCl; read-out: Fluorescence h-Cereblon_DDB1 Mean Kd_EQ
In short: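 At 20° C., protein at constant concentration was titrated with ligand in DMSO over at least 12 steps, exciting tryptophan at 280 nm and reading emission at 340 nm. Intensities were corrected for dilution and filter effect, and Kd was fitted assuming 1:1 binding.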

hCereblon(M1-L442)_hDDB1(M1-H1140), sequence (Q96SW2 whole entry): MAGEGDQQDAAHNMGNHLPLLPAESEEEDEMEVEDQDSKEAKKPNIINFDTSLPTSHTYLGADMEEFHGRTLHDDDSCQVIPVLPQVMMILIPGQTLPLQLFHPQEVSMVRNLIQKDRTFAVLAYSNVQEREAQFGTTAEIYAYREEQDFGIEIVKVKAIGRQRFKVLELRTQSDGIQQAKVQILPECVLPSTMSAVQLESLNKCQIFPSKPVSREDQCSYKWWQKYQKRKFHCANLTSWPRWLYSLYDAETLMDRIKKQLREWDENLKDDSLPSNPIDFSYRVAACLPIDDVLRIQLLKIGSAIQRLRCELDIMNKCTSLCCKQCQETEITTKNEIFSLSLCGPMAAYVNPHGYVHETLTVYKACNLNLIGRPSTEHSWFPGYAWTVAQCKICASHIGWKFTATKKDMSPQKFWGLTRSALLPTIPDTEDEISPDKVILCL
hCereblon(M1-L442)_hDDB1(M1-H1140), sequence (Q16531 whole entry partner): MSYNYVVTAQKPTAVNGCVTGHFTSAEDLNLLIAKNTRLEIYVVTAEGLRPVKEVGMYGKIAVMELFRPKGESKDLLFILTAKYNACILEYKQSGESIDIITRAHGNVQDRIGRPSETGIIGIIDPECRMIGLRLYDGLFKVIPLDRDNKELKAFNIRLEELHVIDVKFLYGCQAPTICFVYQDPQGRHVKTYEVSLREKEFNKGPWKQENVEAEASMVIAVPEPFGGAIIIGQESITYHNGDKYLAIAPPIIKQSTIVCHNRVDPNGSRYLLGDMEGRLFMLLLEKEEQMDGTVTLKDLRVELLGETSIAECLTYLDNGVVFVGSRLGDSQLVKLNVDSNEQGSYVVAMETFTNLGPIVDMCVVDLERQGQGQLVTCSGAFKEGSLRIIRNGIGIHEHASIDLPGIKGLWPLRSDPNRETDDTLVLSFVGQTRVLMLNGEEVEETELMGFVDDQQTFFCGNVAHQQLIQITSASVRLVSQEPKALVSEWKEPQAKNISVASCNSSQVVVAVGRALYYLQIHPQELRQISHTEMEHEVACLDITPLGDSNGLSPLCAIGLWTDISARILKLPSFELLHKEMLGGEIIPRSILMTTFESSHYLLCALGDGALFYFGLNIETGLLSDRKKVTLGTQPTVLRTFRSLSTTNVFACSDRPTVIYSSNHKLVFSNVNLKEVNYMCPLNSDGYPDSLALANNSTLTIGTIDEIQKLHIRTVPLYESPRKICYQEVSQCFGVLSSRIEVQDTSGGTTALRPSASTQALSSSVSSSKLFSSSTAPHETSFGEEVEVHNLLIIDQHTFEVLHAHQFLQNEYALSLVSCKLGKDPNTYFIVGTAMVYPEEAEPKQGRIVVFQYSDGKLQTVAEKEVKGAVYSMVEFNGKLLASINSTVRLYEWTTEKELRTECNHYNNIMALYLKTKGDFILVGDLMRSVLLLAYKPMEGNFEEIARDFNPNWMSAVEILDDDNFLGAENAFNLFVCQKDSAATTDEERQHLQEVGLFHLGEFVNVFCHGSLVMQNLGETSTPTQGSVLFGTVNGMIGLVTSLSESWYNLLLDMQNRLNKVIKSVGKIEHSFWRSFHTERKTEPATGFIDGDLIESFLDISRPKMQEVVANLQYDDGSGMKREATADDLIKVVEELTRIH

Compound	pKd
CC(=O)Nc1ccc(CC(=O)Nc2ccc3[nH]c(=O)[nH]c3c2)cc1 [Example 78, 2-(4-Acetamidophenyl)-N-(2-oxo-2,3-dihydro-1H-benzo[d]imidazol-5-yl)acetamide]	7.64
O=C(Nc1ccc2[nH]c(=O)[nH]c2c1)N1CCc2ccc(Cl)cc21 [Example 129, 6-Chloro-N-(2-oxo-2,3-dihydro-1H-benzo[d]imidazol-5-yl)indoline-1-carboxamide]	6.73
CNC(=O)c1ccc2c(c1)nc(-c1cc(-c3cncn3C)nc3ccccc13)n2-c1ccc2c(c1)n(C)c(=O)n2C [Example 17, N,1′,3′-Trimethyl-2-(2-(1-methyl-1H-imidazol-5-yl)quinolin-4-yl)-2′-oxo-2′,3′-dihydro-1′H-[1,5′-bibenzo[d]imidazole]-5-carboxamide]	7.38
CNC(=O)c1ccc2c(c1)nc(-c1ccnc3ccccc13)n2-c1ccc2[nH]c(=O)[nH]c2c1 [Example 3, N-Methyl-2′-oxo-2-(quinolin-4-yl)-2′,3′-dihydro-1′H-[1,5′-bibenzo[d]imidazole]-5-carboxamide]	7.41
O=c1[nH]c2ccc(-c3ccc(F)cc3F)cc2[nH]1 [Example 38, 5-(2,4-Difluoro-phenyl)-1,3-dihydro-benzoimidazol-2-one]	7.09
O=C(NC1CCN(Cc2ccccc2)CC1)c1ccc2[nH]c(=O)[nH]c2c1 [Example 139, N-(1-Benzylpiperidin-4-yl)-2-oxo-2,3-dihydro-1H-benzo[d]imidazole-5-carboxamide]	8.40
Cn1cncc1-c1cc(-c2nc3ccccc3n2-c2ccc3[nH]c(=O)[nH]c3c2)c2ccccc2n1 [Example 8, 2-(2-(1-Methyl-1H-imidazol-5-yl)quinolin-4-yl)-1′H-[1,5′-bibenzo[d]imidazol]-2′(3′H)-one]	8.22
O=C(Nc1ccccc1)Nc1ccc2[nH]c(=O)[nH]c2c1 [Example 88, 1-(2-Oxo-2,3-dihydro-1H-benzo[d]imidazol-5-yl)-3-phenylurea]	7.77
CNC(=O)c1ccc2c(c1)nc(-c1cc(-c3cncn3C)nc3ccccc13)n2-c1ccc2[nH]c(=O)[nH]c2c1 [Example 2, N-Methyl-2-(2-(1-methyl-1H-imidazol-5-yl)quinolin-4-yl)-2′-oxo-2′,3′-dihydro-1′H-[1,5′-bibenzo[d]imidazole]-5-carboxamide]	7.55
COC(=O)c1cccc2c1CCN2C(=O)Nc1ccc2[nH]c(=O)[nH]c2c1 [Example 89, Methyl 1-((2-oxo-2,3-dihydro-1H-benzo[d]imidazol-5-yl)carbamoyl)indoline-4-carboxylate]	7.60
O=c1[nH]c2ccc(-n3c(-c4ccnc5ccccc45)nc4ccccc43)cc2[nH]1 [Example 7, 2-(Quinolin-4-yl)-1′H-[1,5′-bibenzo[d]imidazol]-2′(3′H)-one]	7.57
Cn1cncc1-c1cc(-c2nc3cc(C(N)=O)ccc3n2-c2ccc3[nH]c(=O)[nH]c3c2)c2ccccc2n1 [Example 113, 2-(2-(1-Methyl-1H-imidazol-5-yl)quinolin-4-yl)-2′-oxo-2′,3′-dihydro-1′H-[1,5′-bibenzo[d]imidazole]-5-carboxamide]	6.05
